Reference: publication PMC5421785, “Citrullination only infrequently impacts peptide binding to HLA class II MHC” (PLoS ONE, 2017)
Like-named read-outs stand apart in the source and are kept apart here. Square brackets hold non-standard residues; d marks the D form. Peptide text beside a SMILES is read from it. Cit = NC(=O)NCCC[C@H](N)C(=O)O

Experiments:
[1] = biological target: T1, HLA-DRB1*01:01 (Homo sapiens, UniProt P01903+P01911, A100R/D57E/F55L/F60I/F76Y/I96L/L162R/M171V/P40L/Q125E/R42F/V115G/Y59C); test: HLA class II peptide binding, inhibition of radiolabeled peptide binding to purified MHC; conditions: for DRB1*01:01 binding capacity, WT/cit ratio: ratio of WT IC50 to Cit IC50, >1 = citrullination increases binding
T1 construct: EBV transformed homozygous cell lines were used as sources of MHC molecules; endogenous in cells; host or cells: EBV transformed homozygous cell lines

[2] = biological target: T2, HLA-DRB1*04:01 (Homo sapiens, UniProt P01903+P01911, A100K/A169T/F76Y/I96L/K127E/L162R/M171V/N62H/P40V/Q125Y/R42H/S133A/S149N/S66Y/V115G/V209L/W38E); test: as above; conditions: for DRB1*04:01 binding capacity, WT/cit ratio: ratio of WT IC50 to Cit IC50, >1 = citrullination increases binding
T2 construct: EBV transformed homozygous cell lines were used as sources of MHC molecules; endogenous in cells; host or cells: EBV transformed homozygous cell lines

[3] = citrullinated 15-mer (X), purified MHC, inhibition of radiolabeled peptide binding, dash = IC50 >40,000 nM, read-out: DRB1*01:01 binding capacity, Cit peptide (IC50 nM)
[4] = citrullinated 15-mer (X), purified MHC, inhibition of radiolabeled peptide binding, dash = IC50 >40,000 nM, read-out: DRB1*04:01 binding capacity, Cit peptide (IC50 nM)
[5] = citrullinated 15-mer peptide (X = citrulline), purified HLA-DRB1*01:01, read-out: DRB1*01:01 binding capacity, Cit peptide (IC50 nM)
[6] = citrullinated 15-mer peptide (X = citrulline), purified HLA-DRB1*04:01, read-out: DRB1*04:01 binding capacity, Cit peptide (IC50 nM)

For CC(C)C[C@H](NC(=O)[C@H](CC(N)=O)NC(=O)[C@H](CC(=O)O)NC(=O)[C@H](CCCNC(N)=O)NC(=O)[C@H](CCC(=O)O)NC(=O)[C@@H](NC(=O)[C@H](CCC(=O)O)NC(=O)[C@@H](NC(=O)[C@H](CCCNC(=N)N)NC(=O)[C@H](C)NC(=O)[C@H](CCCCN)NC(=O)[C@H](CC(=O)O)NC(=O)[C@@H](N)CC(N)=O)C(C)C)C(C)C)C(=O)N[C@@H](C)C(=O)N[C@@H](CCC(=O)O)C(=O)O [NDKARVEVEXDNLAE] (H-NDKARVEVE[Cit]DNLAE-OH), the IC50 [1, 3] was 578 nM and the IC50 [2, 4] was 1410 nM.
Compound CC(C)C[C@H](NC(=O)[C@H](CC(N)=O)NC(=O)[C@H](CC(=O)O)NC(=O)[C@H](CCCNC(=N)N)NC(=O)[C@H](CCC(=O)O)NC(=O)[C@@H](NC(=O)[C@H](CCC(=O)O)NC(=O)[C@@H](NC(=O)[C@H](CCCNC(N)=O)NC(=O)[C@H](C)NC(=O)[C@H](CCCCN)NC(=O)[C@H](CC(=O)O)NC(=O)[C@@H](N)CC(N)=O)C(C)C)C(C)C)C(=O)N[C@@H](C)C(=O)N[C@@H](CCC(=O)O)C(=O)O [NDKAXVEVERDNLAE] (H-NDKA[Cit]VEVERDNLAE-OH) has an IC50 [1, 3] of 1070 nM and an IC50 [2, 4] of 905 nM.
CC[C@H](C)[C@H](NC(=O)[C@H](Cc1ccc(O)cc1)NC(=O)[C@H](CC(N)=O)NC(=O)[C@H](C)NC(=O)[C@H](Cc1ccccc1)NC(=O)[C@H](CCCNC(=N)N)NC(=O)[C@H](CC(=O)O)NC(=O)[C@@H](N)CC(N)=O)C(=O)N[C@@H](CC(=O)O)C(=O)N[C@@H](CCCCN)C(=O)N[C@H](C(=O)N[C@@H](CCCNC(N)=O)C(=O)N[C@@H](Cc1ccccc1)C(=O)N[C@@H](CC(C)C)C(=O)N[C@@H](CCC(=O)O)C(=O)O)C(C)C [NDRFANYIDKVXFLE] (H-NDRFANYIDKV[Cit]FLE-OH) was tested, and the IC50 [1, 3] was 229 nM and the IC50 [2, 4] was 5660 nM.
With CC[C@H](C)[C@H](NC(=O)[C@H](Cc1ccc(O)cc1)NC(=O)[C@H](CC(N)=O)NC(=O)[C@H](C)NC(=O)[C@H](Cc1ccccc1)NC(=O)[C@H](CCCNC(N)=O)NC(=O)[C@H](CC(=O)O)NC(=O)[C@@H](N)CC(N)=O)C(=O)N[C@@H](CC(=O)O)C(=O)N[C@@H](CCCCN)C(=O)N[C@H](C(=O)N[C@@H](CCCNC(=N)N)C(=O)N[C@@H](Cc1ccccc1)C(=O)N[C@@H](CC(C)C)C(=O)N[C@@H](CCC(=O)O)C(=O)O)C(C)C [NDXFANYIDKVRFLE] (H-ND[Cit]FANYIDKVRFLE-OH) the IC50 [1, 3] was 816 nM and the IC50 [2, 4] was 10900 nM.
With CSCC[C@H](NC(=O)[C@H](CCC(=O)O)NC(=O)[C@H](CCC(=O)O)NC(=O)[C@H](CCCCN)NC(=O)[C@H](CCSC)NC(=O)[C@@H](N)CC(N)=O)C(=O)N[C@@H](C)C(=O)N[C@@H](CCCNC(=N)N)C(=O)N[C@@H](Cc1c[nH]cn1)C(=O)N[C@@H](CC(C)C)C(=O)N[C@@H](CCCNC(N)=O)C(=O)N[C@@H](CCC(=O)O)C(=O)N[C@@H](Cc1ccc(O)cc1)C(=O)N[C@@H](CCC(N)=O)C(=O)N[C@@H](CC(=O)O)C(=O)O [NMKEEMARHLXEYQD] the IC50 [1, 5] was 5060 nM and the IC50 [2, 6] was > 40000 nM.
For CSCC[C@H](NC(=O)[C@H](CCC(=O)O)NC(=O)[C@H](CCC(=O)O)NC(=O)[C@H](CCCCN)NC(=O)[C@H](CCSC)NC(=O)[C@@H](N)CC(N)=O)C(=O)N[C@@H](C)C(=O)N[C@@H](CCCNC(N)=O)C(=O)N[C@@H](Cc1c[nH]cn1)C(=O)N[C@@H](CC(C)C)C(=O)N[C@@H](CCCNC(=N)N)C(=O)N[C@@H](CCC(=O)O)C(=O)N[C@@H](Cc1ccc(O)cc1)C(=O)N[C@@H](CCC(N)=O)C(=O)N[C@@H](CC(=O)O)C(=O)O [NMKEEMAXHLREYQD], the IC50 [1, 5] was 5190 nM and the IC50 [2, 6] was > 40000 nM.
In the case of CC(C)C[C@H](NC(=O)[C@H](C)NC(=O)[C@@H](NC(=O)[C@H](Cc1ccc(O)cc1)NC(=O)[C@@H](NC(=O)[C@H](Cc1ccccc1)NC(=O)[C@H](CCCNC(N)=O)NC(=O)[C@H](CO)NC(=O)[C@@H](N)CC(N)=O)[C@@H](C)O)[C@@H](C)O)C(=O)N[C@@H](CCCCN)C(=O)N[C@@H](CC(=O)O)C(=O)NCC(=O)N[C@@H](CS)C(=O)N[C@H](C(=O)N[C@@H](CCCCN)C(=O)O)[C@@H](C)O [NSXFTYTALKDGCTK] (H-NS[Cit]FTYTALKDGCTK-OH), the IC50 ([1]; citrullinated peptide as listed (X at Cit position), read-out: DRB1*01:01 binding capacity Cit peptide (IC50 nM)) was 44 nM, the IC50 ([1]; value of the wild-type (non-citrullinated) counterpart of the listed peptide, read-out: DRB1*01:01 binding capacity WT peptide (IC50 nM)) was 15 nM and the IC50 ([2]; citrullinated peptide as listed (X at Cit position), read-out: DRB1*04:01 binding capacity Cit peptide (IC50 nM)) was 12400 nM. It also gave an IC50 ([2]; value of the wild-type (non-citrullinated) counterpart of the listed peptide, read-out: DRB1*04:01 binding capacity WT peptide (IC50 nM)) of 4170 nM.
CC(C)C[C@H](NC(=O)[C@H](CO)NC(=O)[C@H](C)NC(=O)[C@H](CC(N)=O)NC(=O)[C@H](CC(=O)O)NC(=O)[C@@H](NC(=O)[C@H](CC(=O)O)NC(=O)[C@H](CCC(N)=O)NC(=O)[C@H](CCCNC(N)=O)NC(=O)[C@H](Cc1ccccc1)NC(=O)[C@H](CO)NC(=O)[C@H](CCC(N)=O)NC(=O)[C@H](CC(C)C)NC(=O)[C@@H](NC(=O)[C@@H](N)CC(N)=O)[C@@H](C)O)C(C)C)C(=O)O [NTLQSFXQDVDNASL] (H-NTLQSF[Cit]QDVDNASL-OH) was tested, and the IC50 [1, 3] was 2000 nM and the IC50 [2, 4] was 702 nM.
With CC[C@H](C)[C@H](NC(=O)[C@H](CCCCN)NC(=O)[C@H](CC(N)=O)NC(=O)[C@H](CCC(N)=O)NC(=O)[C@H](CCC(N)=O)NC(=O)[C@H](CCC(=O)O)NC(=O)[C@H](CC(C)C)NC(=O)[C@H](Cc1ccccc1)NC(=O)[C@H](CCCNC(N)=O)NC(=O)[C@@H](NC(=O)[C@H](CCCCN)NC(=O)[C@H](CC(=O)O)NC(=O)[C@@H](NC(=O)[C@H](Cc1ccc(O)cc1)NC(=O)[C@@H](N)CC(N)=O)[C@@H](C)CC)C(C)C)C(=O)O [NYIDKVXFLEQQNKI] (H-NYIDKV[Cit]FLEQQNKI-OH) the IC50 [1, 3] was 102 nM and the IC50 [2, 4] was 1210 nM.
In the case of CC[C@H](C)[C@H](NC(=O)[C@H](CCCNC(N)=O)NC(=O)[C@H](CS)NC(=O)[C@@H]1CCCN1)C(=O)N[C@@H](CS)C(=O)N[C@H](C(=O)N[C@@H](CS)C(=O)N[C@@H](CC(=O)O)C(=O)N[C@H](C(=O)NCC(=O)N[C@H](C(=O)N[C@H](C(=O)N[C@@H](CC(C)C)C(=O)N[C@@H](CS)C(=O)N[C@@H](CC(=O)O)C(=O)O)C(C)C)[C@@H](C)O)[C@@H](C)O)C(C)C [PCXICVCDTGTVLCD] (H-PC[Cit]ICVCDTGTVLCD-OH; N-terminus and C-terminus assumed), the “DRB1*01:01 binding capacity, WT/cit ratio” value [1] was 0.463 and the “DRB1*04:01 binding capacity, WT/cit ratio” value [2] was 1.2.
In the case of C[C@H](NC(=O)CNC(=O)[C@H](CCC(N)=O)NC(=O)[C@@H]1CCCN1C(=O)CNC(=O)[C@@H]1CCCN1C(=O)[C@@H]1CCCN1C(=O)CNC(=O)[C@H](CCCNC(N)=O)NC(=O)[C@@H]1CCCN1C(=O)CNC(=O)[C@@H]1CCCN1C(=O)[C@H](Cc1ccccc1)NC(=O)CNC(=O)[C@@H]1CCCN1)C(=O)O [PGFPGPXGPPGPQGA] (H-PGFPGP[Cit]GPPGPQGA-OH), the IC50 ([1]; citrullinated 15-mer peptide (X = citrulline), […], read-out: DRB1*01:01 binding capacity, Cit peptide (IC50 nM)) was > 40000 nM and the IC50 ([2]; citrullinated 15-mer peptide (X = citrulline), […], read-out: DRB1*04:01 binding capacity, Cit peptide (IC50 nM)) was 37800 nM.
CC[C@H](C)[C@H](NC(=O)CNC(=O)[C@@H]1CCCN1)C(=O)N[C@@H](CC(=O)O)C(=O)N[C@@H](CCSC)C(=O)N[C@@H](CO)C(=O)N[C@@H](C)C(=O)N[C@@H](Cc1ccccc1)C(=O)N[C@@H](C)C(=O)NCC(=O)N[C@@H](CC(C)C)C(=O)NCC(=O)N1CCC[C@H]1C(=O)N[C@@H](CCCNC(N)=O)C(=O)N[C@@H](CCC(=O)O)C(=O)O [PGIDMSAFAGLGPXE] (H-PGIDMSAFAGLGP[Cit]E-OH) gave an IC50 [1, 5] of 122 nM and an IC50 [2, 6] of 12900 nM.
With CC[C@H](C)[C@H](NC(=O)CNC(=O)[C@H](C)NC(=O)[C@H](C)NC(=O)CNC(=O)[C@H](CCCNC(N)=O)NC(=O)[C@H](CCC(=O)O)NC(=O)CNC(=O)[C@@H]1CCCN1C(=O)[C@H](CCSC)NC(=O)CNC(=O)[C@H](CCC(N)=O)NC(=O)[C@H](CC(C)C)NC(=O)CNC(=O)[C@@H]1CCCN1)C(=O)O [PGLQGMPGEXGAAGI] (H-PGLQGMPGE[Cit]GAAGI-OH) the IC50 [1, 5] was 55 nM and the IC50 [2, 6] was 4170 nM.
CC(C)C[C@H](NC(=O)CNC(=O)[C@@H]1CCCN1)C(=O)N[C@@H](CCCNC(N)=O)C(=O)NCC(=O)N[C@@H](CC(C)C)C(=O)N1CCC[C@H]1C(=O)NCC(=O)N[C@@H](CCCCN)C(=O)N[C@@H](CC(=O)O)C(=O)NCC(=O)N[C@@H](CCC(=O)O)C(=O)N[C@H](C(=O)NCC(=O)N[C@@H](C)C(=O)O)[C@@H](C)O [PGLXGLPGKDGETGA] (H-PGL[Cit]GLPGKDGETGA-OH) was tested, and the IC50 [1, 5] was 109 nM and the IC50 [2, 6] was > 40000 nM.
C[C@H](NC(=O)[C@@H]1CCCN1C(=O)CNC(=O)[C@@H]1CCCN1)C(=O)NCC(=O)N1CCC[C@H]1C(=O)N[C@H](C(=O)NCC(=O)N[C@@H](CCCCN)C(=O)N[C@@H](CCC(N)=O)C(=O)NCC(=O)N[C@@H](CC(=O)O)C(=O)N[C@@H](CCCNC(N)=O)C(=O)NCC(=O)N[C@@H](CCC(=O)O)C(=O)O)[C@@H](C)O [PGPAGPTGKQGDXGE] (H-PGPAGPTGKQGD[Cit]GE-OH; N-terminus and C-terminus assumed) was tested, and the IC50 [1, 5] was > 40000 nM, the “DRB1*01:01 binding capacity, WT/cit ratio” value [1] was 1.0 and the IC50 [2, 6] was > 40000 nM. The “DRB1*04:01 binding capacity, WT/cit ratio” value [2] was 1.0.
For CC[C@H](C)[C@H](NC(=O)CNC(=O)[C@H](CCCNC(N)=O)NC(=O)[C@H](CCC(N)=O)NC(=O)CNC(=O)[C@H](C)NC(=O)[C@H](CC(C)C)NC(=O)CNC(=O)[C@H](CCC(N)=O)NC(=O)[C@@H]1CCCN1C(=O)CNC(=O)[C@@H]1CCCN1)C(=O)N[C@H](C(=O)NCC(=O)N[C@@H](CC(C)C)C(=O)O)C(C)C [PGPQGLAGQXGIVGL], the IC50 [1, 5] was 7.1 nM and the IC50 [2, 6] was 7920 nM.
